In publication PMC8092876, “A Leucyl-tRNA Synthetase Inhibitor with Broad-Spectrum Antimycobacterial Activity” (Antimicrobial Agents and Chemotherapy, 2021):
In brackets after ≈: the same amount, converted by molar mass. Read-outs that look alike come from different tables or passages of the source.

Key:
M. abscessus Bamboo [1] = test: MIC assay in 96-well plate format; assay type: cell-based, M. abscessus subsp. abscessus; details: Mycobacteroides abscessus
[2] = system: M. abscessus subsp. bolletii CCUG 50184T; test: MIC assay in 96-well plate format; assay type: cell-based; details: Mycobacteroides abscessus, culture collection reference strain
[3] = system: M. abscessus Bamboo RM2 (LeuS K502E); test: microbe, parasite or virus in culture; assay type: cell-based; details: Mycobacteroides abscessus
[4] = Kinetic aqueous solubility assay (CLND); assay type: physicochemical; details: aqueous buffer, kinetic from dmso stock, pH 7.4 phosphate-buffered saline
Method: The aqueous solubility of test compounds was measured using an in-house method utilizing quantification via chemiluminescent nitrogen detection (CLND): 5 μl of 10 mM DMSO stock solution was diluted to 100 μl with pH 7.4 phosphate-buffered saline, equilibrated for 1 h at room temperature, and filtered through Millipore Multiscreen HTS-PCF filter plates (MSSL BPC). The eluent is quantified by a suitably calibrated flow injection chemiluminescent nitrogen detection (CLND or CAD). This assay has a dynamic range between the lower detection limit of 1 and 500 μM, governed by the protocol’s 1:20 dilution into pH 7.4 phosphate buffer solution from nominal 10 mM DMSO stock.

[5] = system: M. abscessus subsp. abscessus M199; test: MIC assay in 96-well plate format; assay type: cell-based; details: Mycobacteroides abscessus; M. abscessus subsp. abscessus M199, clinical isolate
[6] = system: M. abscessus subsp. abscessus M422; test: MIC assay in 96-well plate format; assay type: cell-based; details: Mycobacteroides abscessus; M. abscessus subsp. abscessus M422, clinical isolate
[7] = Mouse pharmacokinetics, intravenous administration; assay type: in vivo
Method: For pharmacokinetic studies, CD-1 male mice (22 to 25 g) were used for intravenous route and C57BL/6 female mice (18 to 20 g) were used for oral route. All animal studies were ethically reviewed and carried out in accordance with European Directive 2010/63/EU and the GSK policy on the care, welfare, and treatment of animals.
EC/11770 was administered by intravenous route at 1 mg/kg single dose in saline and by oral gavage at 1 mg/kg and 10 mg/kg single doses in 1% methyl cellulose (1% MC). Aliquots of 20 μl of blood were taken from the lateral tail vein by puncture from each mouse (n = 3 per route and dose) at 5, 15, and 30 min 1, 2, 4, 6, 8, and 24 h postdose for intravenous route and at 15, 30, and 45 min 1, 2, 4, 6, 8, and 24 h postdose for oral route. The blood aliquots were mixed with 40 μl of water and stored at −80°C prior to analysis. The samples were processed by protein precipitation: aliquots of 20 μl were mixed with acetonitrile/methanol (80:20 vol/vol) and then filtered in 0.45 μm well-plates (hydrophobic polytetrafluorethylene [PTFE], Millipore). The filtrates were analyzed by UPLC-MS/MS for the establishment of compound concentration. The ultraperformance liquid chromatography (UPLC)-MS/MS system included a UPLC Acquity (Waters) and an API4000 mass spec. (AB Sciex). A volume of 7.5 μl of sample was injected into the system, with an UPLC solvent gradient of 2 min and with a positive multiple reaction monitoring (MRM) mass detection mode.
Pharmacokinetic analysis was performed by noncompartmental data analysis (NCA) with Phoenix WinNonlin 6.3 (Pharsight, Certara L.P), and supplementary analysis was performed with GraphPad Prism 6 (GraphPad Software, Inc.).

[8] = AMP (artificial membrane permeability) assay; assay type: in vitro ADME; details: PAMPA, pH 7.4
Method: An 8% L-α-phosphatidylcholine (EPC) in 1% cholesterol decane solution and a 1.8% EPC in cholesterol decane solution were prepared. The lipid solution was then aliquoted into 4 ml capped vials, sealed with parafilm, and stored in a −20°C freezer. The lipid solution was then transferred from 4 ml vial into a 96-well half area plate (130 μl/well) for daily assay usage. An additional 50 mM phosphate buffer with 0.5% encapsin (pH 7.4) was prepared. The assay was run by the Biomek FX and Biomek software. The assay procedure is written under the Biomek software. For one batch assay, it can test two 96-well sample plates with at least one standard on each sample plate. The total assay time was about 4 h. A total of 3.5 μl of lipid solution was added to the filler plate and shaken for 12 s, 250 μl of buffer was added to the donor side, and 100 μl of buffer was added to the receiver side. The assay plate was shaken for 45 min before adding the compounds. The test compounds (2.5 μl) were added to the donor side. The assay was run as replicates: assay plates 1 and 2 tested sample plate 1, and assay plates 3 and 4 tested sample plate 2. The assay plates were then incubated and shaken for 3 h at room temperature. […] Compound concentration was measured by HPLC at different time points.

[9] = system: M. abscessus Bamboo RM3 (LeuS V417M); test: microbe, parasite or virus in culture; assay type: cell-based; details: RM3, batch 1, LeuS V417M
M. abscessus Bamboo [10] = assay type: cell-based
[11] = system: M. abscessus Bamboo RM4 (LeuS T327R); test: microbe, parasite or virus in culture; assay type: cell-based; details: Mycobacteroides abscessus
M. chimaera CCUG 50989T = test: MIC assay in 96-well plate format; assay type: cell-based; details: CCUG50989T, culture collection reference strain
Stability in microsomes = assay type: in vitro ADME
Method: Intrinsic clearance (CLi) values were determined in mouse and human liver microsomes. Test compounds (final concentration 0.5 μM) were incubated at 37°C for 30 min in 50 mM potassium phosphate buffer (pH 7.4) containing 0.5 mg microsomal protein/ml. The reaction was started by addition of cofactor NADPH. At 0, 5, and 20 min, an aliquot (90 μl) was taken, quenched with acetonitrile-methanol containing an appropriate internal standard, centrifuged, and analyzed by liquid chromatography-tandem mass spectrometry (LC-MS/MS). The intrinsic clearance (CLi) was determined using the following equation: CLi = k(ml of incubation/mg microsomal protein) × (mg microsomal protein/g liver)where k is the turnover rate constant of the ln(% remaining compound) versus time regression and mg microsomal protein/g liver is 52.5 for both mouse and human.

[12] = system: M. abscessus subsp. abscessus M9; test: MIC assay in 96-well plate format; assay type: cell-based; details: Mycobacteroides abscessus; M. abscessus subsp. abscessus M9, clinical isolate

CC(C)(O)COc1ccc(Br)c2c1B(O)O[C@@H]2CN [EC/11770]
MIC (M. abscessus Bamboo [1]): 0.9 µM (≈ 0.297 µg/mL) | MIC (M. abscessus Bamboo [1]; 72 h, M. abscessus Bamboo, 7H9, 3 days, read-out: MIC): 1.2 µM (≈ 0.396 µg/mL) | MIC (M. abscessus Bamboo [1]; 72 h, M. abscessus Bamboo, CAMH broth, 3 days, read-out: MIC): 0.7 µM (≈ 0.231 µg/mL) | MIC [2]: 1.3 µM (≈ 0.429 µg/mL) | MIC [3]: > 100 µM | solubility at 1 h [4]: 349 µM (≈ 115 µg/mL) | MIC [5]: 0.93 µM (≈ 0.307 µg/mL) | MIC [6]: 0.33 µM (≈ 0.109 µg/mL) | half-life ([7]; male, CD-1, whole blood, mouse, intravenous 1 mg/kg, average (SD)): 318 min | Vd ([7]; male, CD-1, whole blood, mouse, intravenous 1 mg/kg, average (SD), read-out: Vss): 2.4 L/kg | AUC(0-inf) ([7]; male, CD-1, mouse, intravenous 1 mg/kg, whole blood, average (SD)): 3340 ng·h/mL | in vivo clearance as share of liver blood flow in mice ([7]; mouse, intravenous 1 mg/kg, liver blood flow 90 to 126 ml/min/kg): approximately 5% | clearance ([7]; whole blood, mouse (CD-1 male), intravenous 1 mg/kg in saline, average (SD), read-out: In vivo CL): 5 mL/min/kg | Papp at 3 h [8]: 27.5 ×10⁻⁶ cm/s | MIC ([9]; Mycobacteroides abscessus): 60 to 75 µM (≈ 19.8 to 24.7 µg/mL) | MIC [9]: 62 µM (≈ 20.5 µg/mL) | frequency of resistance (M. abscessus Bamboo [10]): 3.9 × 10^−8 /CFU | MIC [11]: > 100 µM | MIC (M. chimaera CCUG 50989T): 1.7 µM (≈ 0.561 µg/mL) | Human in vitro CLint (Stability in microsomes; human hepatic microsomes): <0.5 <0.5 ml/min/g tissue | Mouse in vitro CLint (Stability in microsomes; mouse hepatic microsomes): <0.5 <0.5 ml/min/g tissue | MIC [12]: 0.49 µM (≈ 0.162 µg/mL)
